Laboratory results reported in ChEMBL document CHEMBL1131739, “Synthesis of 25-aminosterols, new antifungal agents” (1999).
Values after ≈ are worked out from the molar mass of the structure shown.

Tested on: Candida albicans
Assay: In vitro antifungal activity against candida albicans (IP 1180.79)
Type: functional

Row | SMILES | MIC
1 | C[C@H](CCCC(C)(C)N)C1CC[C@@]2(C)C3=C(CC[C@]12C)[C@@]1(C)CC[C@H](O)C(C)(C)C1CC3 (some centres not stated) | 60 µM (≈ 26.6 µg/mL)
2 | C[C@H](CCCC(C)(C)N)C1CCC2C3CC=C4C[C@@H](O)CC[C@]4(C)C3CC[C@@]21C (some centres not stated) | 4 µM (≈ 1.61 µg/mL)
